Results reported in patent publication US11040028B2, “Penicinotam derivative, preparation method and use thereof” (OCEAN UNIVERSITY OF CHINA, priority 2017, dated 2021).
Read-outs that look alike come from different tables or passages of the source.

What was measured:
Type in all cases: cell-based
[1] = system: mouse macrophages (RAW264.7); test: Lipopolysaccharide-induced NO secretion in macrophages (Griess); conditions: RAW264.7, LPS 1 μg/ml, a/b isomers given as first/second symbol, read-out: IC50 (μM), inhibition of lipopolysaccharide-induced NO secretion in macrophages
Description: The effects of the compounds of the present application on the lipopolysaccharide-induced NO secretion in macrophage was tested Principle: Anti-inflammatory drug activity screening is to detect the inhibitory effect of compounds on NO production in the mouse macrophages (RAW264.7). When immune cells are stimulated by microbial endotoxin, inflammatory mediators, etc., a large amount of induced NO synthase (iNOS) is produced, and thus NO is generated for immune response. Accordingly, the inhibition of NO production can serve as a direct indicator of the anti-inflammatory activity of the compound. The activity of the compound to inhibit NO production at the cellular level is directly evaluated in the abovementioned test model, thereby reflecting the anti-inflammatory activity of the compound. In this experiment, the content of NO in the medium was detected by Gris kit (Molecular probes, G-7921). Macrophages (Raw264.7) were cultured in DMEM medium containing 10% fetal bovine serum, with the cell concentration adjusted. The cells were seeded in 24-well cell culture plates, cultured in an incubator, and the test samples in different concentrations were added every other day. The blank medium was used as a blank control, and commercially available indomethacin and resveratrol were employed as positive controls. After the addition of lipopolysaccharide (LPS, 1 μg/ml), incubation was performed for 24 hours. Then the supernatant culture solution was taken, to […] reagent was added, and the absorbance value was measured by a microplate reader at 548 nm. Inhibition rate=([…])×100%.

[2] = system: human fibrosarcoma cells HT-1080; test: Anti-fibrosis activity test: inhibition of proliferation of human fibrosarcoma cells HT-1080 (CCK-8); conditions: Homo sapiens, HT-1080, 48 h
Description: (§1) BHK-21 cells in exponential growth phase were selected. After the fusion growth reached 85-95%, normal passage method was utilized to digest and collect the cells, followed by cell counting and adjusting the cell density to 2×10^4 cells/mL. The cells were seeded into 96-well plates, 100 μL/well, and were incubated under the condition of 5% CO2 at 37° C.
(§2) The supernatant was removed after the cells had adhered to the wall for 24 hours. The culture solution containing the prepared compounds at different concentrations were added to the wells, 100 μL/well, each concentration in triplicate. The cells were subcultured for 48 hours after administration. Commercially available pirfenidone was employed as the positive control.
(§3) 10 μL of CCK-8 solution ( 1/10 of the volume of the culture solution) was added to each well 48 hours after the administration, and incubated for 2 hours. The absorbance (A) of each well was determined by a microplate reader at 450 nm wavelength. The inhibition rate against cell proliferation for each compound was calculated based on A, wherein inhibition rate against cell proliferation (inhibition ratio, IR)=(1−value of experimental group (Ai)/value of blank control group (Ao))×100% and the IC50 value of each compound was calculated by the data processing software.
(§4) Using the same protocol for the cell experiments, the inhibitory activity of the test compounds against the proliferation of human lung fibroblasts HFL1, human hepatic stellate cells LX-2, human fibrosarcoma cells HT-1080, human dermal fibroblasts CCC-ESF-1, human embryonic lung fibroblast IMR-90, cardiac fibroblast RAT-iCell-C002 was assayed.

[3] = system: BHK-21 cells; test: Anti-fibrosis activity test: inhibition of BHK-21 cell proliferation (CCK-8); conditions: Mesocricetus auratus, BHK-21, 48 h
Description: as §1, §2, §3

[4] = system: human hepatic stellate cells LX-2; test: Anti-fibrosis activity test: inhibition of proliferation of human hepatic stellate cells LX-2 (CCK-8); conditions: Homo sapiens, 48 h
Description: as §1, §2, §3, §4

[5] = system: human dermal fibroblasts CCC-ESF-1; test: Anti-fibrosis activity test: inhibition of proliferation of human dermal fibroblasts CCC-ESF-1 (CCK-8); conditions: Fibroblast
Description: as §1, §2, §3, §4

[6] = system: human lung fibroblasts HFL1; test: Anti-fibrosis activity test: inhibition of proliferation of human lung fibroblasts HFL1 (CCK-8); conditions: Homo sapiens, HFL1, 48 h
Description: as §1, §2, §3, §4

[7] = system: human embryonic lung fibroblast IMR-90; test: Anti-fibrosis activity test: inhibition of proliferation of human embryonic lung fibroblast IMR-90 (CCK-8)
Description: as §1, §2, §3, §4

[8] = system: cardiac fibroblast RAT-iCell-C002; test: Anti-fibrosis activity test: inhibition of proliferation of cardiac fibroblast RAT-iCell-C002 (CCK-8)
Description: as §1, §2, §3, §4

[9] = human fibrosarcoma cells HT-1080, CCK-8, 48 hours
[10] = CCK-8, 48 hours after administration
[11] = human hepatic stellate cells LX-2, CCK-8, 48 hours
[12] = human dermal fibroblasts CCC-ESF-1, CCK-8, 48 hours
[13] = human lung fibroblasts HFL1, CCK-8, 48 hours
[14] = human embryonic lung fibroblast IMR-90, CCK-8, 48 hours
[15] = Cardiac fibroblast, 48 h, cardiac fibroblast RAT-iCell-C002, CCK-8, 48 hours
[16] = cardiac fibroblast RAT-iCell-C002, CCK-8, 48 hours

| Compound | IC50 ([1]; Mus musculus, RAW264.7, 24 h) [µM] | IC50 [2, 9] [mM] | IC50 [3, 10] [mM] | IC50 [4, 11] [mM] | IC50 [5, 12] [mM] | IC50 [6, 13] [mM] | IC50 [7, 14] [mM] | IC50 [8, 15] [mM] | IC50 ([2]; HT-1080 cells, 48 h, CCK-8) [mM] | IC50 ([3]; 48 h, CCK-8) [mM] | IC50 ([4]; LX-2, 48 h, LX-2 cells, CCK-8) [mM] | IC50 ([5]; Homo sapiens, CCC-ESF-1 cells, 48 h, CCK-8) [mM] | IC50 ([6]; HFL1 cells, 48 h, CCK-8) [mM] | IC50 ([7]; Homo sapiens, IMR-90 cells, 48 h, CCK-8) [mM] | IC50 ([8]; Cardiac fibroblast, 48 h, RAT-iCell-C002 cells, CCK-8) [mM] | IC50 ([1]; 24 hours) [µM] | IC50 [8, 16] [mM] |
| --- | --- | --- | --- | --- | --- | --- | --- | --- | --- | --- | --- | --- | --- | --- | --- | --- | --- |
| O=C1c2c(n(-c3ccc(Cl)cc3)c3ccc(C(F)(F)F)cc3c2=O)-c2cccn21 [Compound 276a, 4-(4-Chlorophenyl)-7-(trifluoromethyl)-9H-pyrrolizino[1,2-b]quinoline-9,10(4H)-dione] | 0.1 to 1 | 0.05 to 5 | < 0.05 | 0.05 to 5 | 0.05 to 5 | 0.05 to 5 | 0.05 to 5 | 5 to 20 | – | – | – | – | – | – | – | – | – |
| COc1ccc2c(c1)c(CC(=O)O)c(C)n2C(=O)c1ccc(Cl)cc1 [indomethacin, reference compound] | 10 to 50 | – | – | – | – | – | – | – | – | – | – | – | – | – | – | – | – |
| Cc1cc(C)c2nc3c(c(O)c2c1)-c1cccn1C3=O [Compound 780b, 11-hydroxy-7,9-dimethyl-5H-pyrrolizino[2,1-b]quinolin-5-one] | 1 to 10 | – | – | – | – | – | – | – | 0.05 to 5 | 0.05 to 5 | 0.05 to 5 | 0.05 to 5 | 0.05 to 5 | 0.05 to 5 | 0.05 to 5 | – | – |
| O=C1c2c(nc3ccc(OC(F)(F)F)cc3c2Oc2ccc(Cl)cc2)-c2cccn21 [Compound 300b, 9-(4-chlorophenoxy)-7-(trifluoromethoxy)-10H-pyrrolizino[1,2-b]quinolin-10-one] | 1 to 10 | 0.05 to 5 | 0.05 to 5 | 0.05 to 5 | 0.05 to 5 | 0.05 to 5 | 0.05 to 5 | 0.05 to 5 | – | – | – | – | – | – | – | – | – |
| O=C1c2c(nc3cc(Cl)ccc3c2OCc2ccc(F)cc2)-c2cccn21 [Compound 502b, 6-chloro-9-((4-fluorobenzyl)oxy)-10H-pyrrolizino[1,2-b]quinolin-10-one] | 1 to 10 | 0.05 to 5 | 0.05 to 5 | 0.05 to 5 | 0.05 to 5 | 0.05 to 5 | 0.05 to 5 | 0.05 to 5 | – | – | – | – | – | – | – | – | – |
| O=C1c2c(nc3cccc(Cl)c3c2OCc2ccc(F)cc2)-c2cccn21 [Compound 474b, 8-chloro-9-((4-fluorobenzyl)oxy)-10H-pyrrolizino[1,2-b]quinolin-10-one] | 1 to 10 | 0.05 to 5 | 0.05 to 5 | 0.05 to 5 | 0.05 to 5 | 0.05 to 5 | 0.05 to 5 | 5 to 20 | – | – | – | – | – | – | – | – | – |
| O=C1c2c(n(Cc3ccccc3Cl)c3c(Cl)cccc3c2=O)-c2cccn21 [Compound 461a, 5-Chloro-4-(2-chlorobenzyl)-9H-pyrrolizino[1,2-b]quinoline-9,10(4H)-dione] | 1 to 10 | 0.05 to 5 | < 0.05 | < 0.05 | 0.05 to 5 | 0.05 to 5 | 0.05 to 5 | 0.05 to 5 | – | – | – | – | – | – | – | – | – |
| O=C1c2c(n(Cc3ccc(Cl)cc3)c3c(C(F)(F)F)c(N4CCNCC4)ccc3c2=O)-c2cccn21 [Compound 487a, 4-(4-Chlorobenzyl)-6-(piperazin-1-yl)-5-(trifluoromethyl)-9H-pyrrolizino[1,2-b]quinoline-9,10(4H)-dione] | – | – | – | – | – | – | – | – | – | – | – | – | – | – | – | 0.1 to 1 | < 0.05 |
| O=C1c2c(nc3c(C(F)(F)F)c(N4CCNCC4)ccc3c2OCc2ccc(Cl)cc2)-c2cccn21 [Compound 487b, 9-((4-chlorobenzyl)oxy)-6-(piperazin-1-yl)-5-(trifluoromethyl)-10H-pyrrolizino[1,2-b]quinolin-10-one] | – | – | – | – | – | – | – | – | – | – | – | – | – | – | – | 10 to 50 | 0.05 to 5 |
| Oc1ccc(C=Cc2cc(O)cc(O)c2)cc1 [resveratrol, reference compound] | 1 to 10 | – | – | – | – | – | – | – | – | – | – | – | – | – | – | – | – |
| CC(C)CCn1c2c(c(=O)c3cc(F)ccc31)C(=O)n1cccc1-2 [Compound 105a, 7-Fluoro-4-isopentyl-9H-pyrrolizino[1,2-b]quinoline-9,10(4H)-dione] | – | 0.05 to 5 | 0.05 to 5 | 0.05 to 5 | 0.05 to 5 | 0.05 to 5 | 0.05 to 5 | 0.05 to 5 | – | – | – | – | – | – | – | – | – |
| N#Cc1cc2c(=O)c3c(n(Cc4ccc(C(F)(F)F)cc4)c2cc1N1CCNCC1)-c1cccn1C3=O [Compound 642a, 9,10-Dioxo-6-(piperazin-1-yl)-4-(4-(trifluoromethyl)benzyl)-4,10-dihydro-9H-pyrrolizino[1,2-b]quinoline-7-carbonitrile] | – | 0.05 to 5 | 0.05 to 5 | 0.05 to 5 | < 0.05 | 0.05 to 5 | 0.05 to 5 | 0.05 to 5 | – | – | – | – | – | – | – | – | – |
| O=C1c2c(n(Cc3ccc(-c4ccccc4)cc3)c3cc(N4CCNCC4)c(F)cc3c2=O)-c2cccn21 [Compound 637a, 4-([1,1′-Biphenyl]-4-ylmethyl)-7-fluoro-6-(piperazin-1-yl)-9H-pyrrolizino[1,2-b]quinoline-9,10(4H)-dione] | – | 5 to 20 | < 0.05 | 0.05 to 5 | 0.05 to 5 | 0.05 to 5 | 0.05 to 5 | 0.05 to 5 | – | – | – | – | – | – | – | – | – |
| O=C1c2c(nc3cc(N4CCNCC4)c(F)cc3c2OCc2ccc(F)cc2)-c2cccn21 [Compound 634b, 7-fluoro-9-((4-fluorobenzyl)oxy)-6-(piperazin-1-yl)-10H-pyrrolizino[1,2-b]quinolin-10-one] | – | 0.05 to 5 | 0.05 to 5 | 0.05 to 5 | 0.05 to 5 | 0.05 to 5 | 0.05 to 5 | 0.05 to 5 | – | – | – | – | – | – | – | – | – |
| O=C1c2c(n(Cc3ccc(C(F)(F)F)cc3)c3cc(N4CCNCC4)c(F)cc3c2=O)-c2cccn21 [Compound 636a, 7-Fluoro-6-(piperazin-1-yl)-4-(4-(trifluoromethyl)benzyl)-9H-pyrrolizino[1,2-b]quinoline-9,10(4H)-dione] | – | 0.05 to 5 | 0.05 to 5 | 0.05 to 5 | < 0.05 | 0.05 to 5 | 0.05 to 5 | 0.05 to 5 | – | – | – | – | – | – | – | – | – |
| O=C1c2c(nc3cc(N4CCNCC4)c(F)cc3c2OCc2ccc(C(F)(F)F)cc2)-c2cccn21 [Compound 636b, 7-fluoro-6-(piperazin-1-yl)-9-((4-(trifluoromethyl)benzyl)oxy)-10H-pyrrolizino[1,2-b]quinolin-10-one] | – | 0.05 to 5 | 0.05 to 5 | 0.05 to 5 | 0.05 to 5 | 0.05 to 5 | 0.05 to 5 | 0.05 to 5 | – | – | – | – | – | – | – | – | – |
| N#Cc1ccccc1-c1ccc(Cn2c3c(c(=O)c4cc(C#N)c(N5CCNCC5)cc42)C(=O)n2cccc2-3)cc1 [Compound 644a, 4-((2′-Cyano-[1,1′-biphenyl]-4-yl)methyl)-9,10-dioxo-6-(piperazin-1-yl)-4,10-dihydro-9H-pyrrolizino[1,2-b]quinoline-7-carbonitrile] | – | 0.05 to 5 | 0.05 to 5 | 0.05 to 5 | 0.05 to 5 | 0.05 to 5 | 0.05 to 5 | 0.05 to 5 | – | – | – | – | – | – | – | – | – |
| O=C1c2c(nc3cc(N4CCNCC4)c(F)cc3c2O)-c2cccn21 [Compound 346b, 7-fluoro-9-hydroxy-6-(piperazin-1-yl)-10H-pyrrolizino[1,2-b]quinolin-10-one] | – | 0.05 to 5 | 0.05 to 5 | 0.05 to 5 | 0.05 to 5 | 0.05 to 5 | 0.05 to 5 | 0.05 to 5 | – | – | – | – | – | – | – | – | – |
